# PMC7617869, “Molecular glues that inhibit deubiquitylase activity and inflammatory signaling” (Nature Structural & Molecular Biology, 2025)
# Several values for one entry are separate records, joined by “and”; a condition that tells them apart may be missing. Equal entries are not always repeated.
# Test system: ISG expression in SSc PBMCs
# Test: SSc PBMC type I IFN signaling gene expression array, unstimulated
# Assay type: cell-based, human
# Protocol: PBMCs in vitro experiments
# Peripheral blood mononuclear cells (PBMCs) from healthy and SSc donors were separated using density gradient method (Leucosep™, Greiner Bio-One International) from EDTA anticoagulated peripheral blood; isolated cells were washed twice by PBS. PBMCs were then incubated in RPMI1640 […]
# For healthy PBMCs, cells were stimulated with 20 ng/mL of IFN (+/- compounds or DMSO). For SSc PBMCs, cells were in basal conditions with no additional IFN stimulation. Cells were centrifuged at 300 g for 10 minutes. […]
# RNA was extracted from cell pellets using TRIzol™ (ThermoFisher
# Scientific, Waltham, MA) and processed using Quick-RNA Miniprep Kit (Zymo Research) as per the manufacturer’s instruction.
# For Type I IFN signalling analysis, the human IFN I RT2 Profiler PCR Array (Qiagen, PAMM-016ZE) was performed on available RNA from healthy (n=3) and SSc (n=9) donors. RNA was converted to cDNA using RT2 First Strand Kit (Qiagen). Next, the cDNA was mixed with RT2 SYBR Green Mastermix (Qiagen, Venlo). Successful PCR performance was confirmed by assay tests for genomic DNA contamination, RNA sample quality, as well as single melt curve determination and <35 Ct for each gene, leading to validated gene expression of 67 genes. Relative expression for each gene was determined, firstly by ∆CT calculated using the geometric mean of 4 housekeeping genes (ACTB, GAPDH, HPRT1, RPLP0), followed by 2^(-∆CT), and expressed as fold change to control, according to manufacturer’s guidance. IFN2α-induced ISGs in healthy donors were determined using a Student’s t-test (two-tail distribution and equal variances) on the triplicate fold change in 2^(-ΔCT) values between […]
# donors). Heatmaps were generated using the “pheatmap” function in R (v4.0.2) and RStudio (v1.3.1093) applying row scaling to standardise the expression data across samples (R core team 2020.
# R Foundation for Statistical Computing). The IFN2α inducible genes determined in healthy donors […]
# 171-C. To account for Type I IFN signalling heterogeneity across samples, the mean 2^(-∆CT) for each […]
# relative gene expression, illustrated as a fold change and visualised in log2. The Type I IFN signalling array data for the patient samples is included in Source Data Figure 6, Extended Data Fig. 9.
# [1] = unstimulated PBMCs from SSc patients, one value per patient (P1-P9)
compound,measurement,setting,value
O=C(NC1CCNCC1)c1nn(C(=O)c2c(Cl)cccc2Cl)cc1NC(=O)c1c(Cl)cccc1Cl [JMS-175-2],number of ISGs (of 34) reduced compared to AP-5-145,"SSc PBMCs (n = 9), 2 µM, 16 h",22
same,"ADAR, Type I IFN signalling array raw data",[1],3.812 and 3.743 and 4.113 and 4.435 and 3.832 and 4.965 and 3.1007 and 4.473 and 4.363
same,"BST2, Type I IFN signalling array raw data",[1],2.634 and 3.889 and 3.072 and 2.87 and 3.494 and 3.795 and 4.633 and 2.6092 and 2.483
same,"CASP1, Type I IFN signalling array raw data",[1],1.213 and 2.812 and 2.398 and 2.039 and 1.156 and 2.52 and 2.747 and 2.114 and 1.958
same,"CD86, Type I IFN signalling array raw data",[1],3.228 and 5.906 and 3.901 and 5.361 and 5.149 and 4.521 and 6.493 and 4.685 and 4.196
same,"CXCL10, Type I IFN signalling array raw data",[1],8.71 and 7.706 and 4.205 and 4.635 and 4.659 and 4.1108 and 5.782 and 5.515 and 4.585
same,"DDX58, Type I IFN signalling array raw data",[1],2.743 and 2.94 and 3.022 and 3.298 and 2.839 and 3.98 and 3.519 and 2.665 and 2.269
same,"GBP1, Type I IFN signalling array raw data",[1],2.158 and 2.728 and 1.98 and 1.48 and 2.261 and 1.7592 and 1.143 and 2.383 and 0.7799
same,"IFI6, Type I IFN signalling array raw data",[1],2.425 and 3.947 and 3.076 and 2.468 and 2.755 and 3.753 and 4.379 and 1.895 and 1.403
same,"IFI16, Type I IFN signalling array raw data",[1],2.049 and 1.794 and 2.214 and 1.769 and 1.846 and 2.52 and 0.8721 and 1.744 and 1.344
same,"IFIH1, Type I IFN signalling array raw data",[1],4.067 and 4.072 and 3.5554 and 2.793 and 3.2049 and 5.377 and 3.587 and 3.865 and 3.376
same,"IFIT1, Type I IFN signalling array raw data",[1],6.813 and 5.481 and 4.387 and 3.431 and 4.758 and 6.993 and 4.645 and 3.607 and 3.511
same,"IFIT2, Type I IFN signalling array raw data",[1],3.877 and 4.276 and 4.33 and 2.588 and 4.403 and 4.745 and 2.229 and 3.19 and 2.838
same,"IFIT3, Type I IFN signalling array raw data",[1],4.821 and 4.968 and 3.571 and 2.478 and 4.365 and 4.923 and 2.496 and 2.53 and 2.343
same,"IFITM1, Type I IFN signalling array raw data",[1],1.018 and 0.9593 and 1.422 and 1.403 and 1.369 and 1.662 and 1.509 and 1.105 and 0.5587
same,"IFITM2, Type I IFN signalling array raw data",[1],4.116 and 4.7 and 5.192 and 4.824 (2×) and 4.737 and 4.678 and 5.159 and 5.095
same,"IFITM3, Type I IFN signalling array raw data",[1],2.916 and 4.165 and 3.837 and 2.08 and 3.733 and 4.352 and 4.508 and 1.719 and 2.211
same,"IRF1, Type I IFN signalling array raw data",[1],1.526 and 2.165 and 1.923 and 0.6715 and 1.654 and 1.161 and 1.159 and 2.105 and 0.7689
same,"IRF7, Type I IFN signalling array raw data",[1],5.385 and 5.096 and 5.885 and 3.925 and 5.478 and 5.126 and 4.9117 and 4.798 and 3.676
same,"IRF9, Type I IFN signalling array raw data",[1],1.63 and 2.363 and 2.229 and 1.688 and 2.545 and 2.717 and 2.001 and 1.778 and 1.074
same,"ISG15, Type I IFN signalling array raw data",[1],7.828 and 5.157 and 3.914 and 1.97 and 4.252 and 5.488 and 3.54 and 2.475 and 2.54
same,"ISG20, Type I IFN signalling array raw data",[1],2.454 and 3.36 and 3.266 and 3.42 and 2.95 and 3.395 and 3.115 and 4.07 and 2.362
same,"MX1, Type I IFN signalling array raw data",[1],4.39 and 3.317 and 4.478 and 2.343 and 4.002 and 5.299 and 4.681 and 3.297 and 2.96
same,"MX2, Type I IFN signalling array raw data",[1],4.119 and 3.616 and 4.1617 and 3.303 and 3.807 and 5.104 and 3.9466 and 3.181 and 2.652
same,"MYD88, Type I IFN signalling array raw data",[1],2.47 and 3.66 and 3.439 and 3.359 and 3.397 and 3.681 and 4.188 and 3.514 and 3.446
same,"NMI, Type I IFN signalling array raw data",[1],1.562 and 2.473 and 2.043 and 2.157 and 2.037 and 2.367 and 1.861 and 2.107 and 1.945
same,"OAS1, Type I IFN signalling array raw data",[1],3.9946 and 5.08 and 3.975 and 3.103 and 3.832 and 4.439 and 4.753 and 3.122 and 2.562
same,"OAS2, Type I IFN signalling array raw data",[1],4.012 and 3.3146 and 4.469 and 3.575 and 4.215 and 3.938 and 4.568 and 3.269 and 1.99
same,"PML, Type I IFN signalling array raw data",[1],3.464 and 4.0817 and 4.578 and 3.206 and 4.344 and 4.48 and 3.583 and 3.774 and 3.137
same,"SOCS1, Type I IFN signalling array raw data",[1],3.527 and 3.231 and 4.351 and 3.055 and 4.321 and 4.161 and 3.784 and 3.314 and 2.261
same,"STAT1, Type I IFN signalling array raw data",[1],0.658 and 1.171 and -0.3774 and -0.03547 and 0.5032 and 0.1577 and 0.4735 and 0.157 and -0.9535
same,"STAT2, Type I IFN signalling array raw data",[1],3.702 and 3.438 and 3.148 and 3.834 and 3.166 and 3.676 and 3.7416 and 3.178 and 2.42
same,"STAT3, Type I IFN signalling array raw data",[1],1.85 and 1.467 and 4.524 and 1.728 and 2.05 and 2.151 and 1.4 and 1.718 and 1.637
same,"TAP1, Type I IFN signalling array raw data",[1],1.739 and 1.988 and 2.594 and 1.8192 and 2.316 and 2.659 and 1.447 and 2.0534 and 1.014
same,"TNFSF10, Type I IFN signalling array raw data",[1],2.971 and 3.81 and 3.83 and 3.393 and 3.712 and 3.506 and 3.8599 and 3.839 and 2.706
